Laboratory results published in patent US8513227B2, “Inhibition of inflammatory cytokine production with tanshinones” (The Feinstein Institute for Medical Research, priority 2006, dated 2013).
Where two headings read alike, the source gives them in different places.

Key:
HMGB1 [1] = assay: LPS-induced HMGB1 release in RAW 264.7 macrophage cultures (western blot); type: cell-based, murine; details: for IC50: Mus musculus, read-out: estimated IC50 for LPS-induced HMGB1 release
Description: Cell culture. […] Rendon-Mitchell et al. 2003). Murine macrophages were pre-cultured in RPMI 1640 medium (Gibco BRL, Grand Island, N.Y.) supplemented with 10% fetal bovine serum (FBS) and 2 mmol/L glutamine. Human peripheral blood mononuclear cells (HuPBMCs) were isolated from the blood of healthy donors (Long Island Blood Bank, Melville, N.Y.) by density gradient centrifugation through Ficoll (Ficoll-Paque PLUS, Pharmacia, Piscataway, N.J.), and cultured in RPMI 1640 supplemented with 10% heat-inactivated human serum/0.2 mM L-glutamine as previously described (Rendon-Mitchell et al. 2003). LPS stimulation. Adherent macrophages or monocytes were gently washed with, and cultured in, serum-free OPTI-MEM I medium two hours before stimulation with bacterial endotoxin (lipopolysaccharide, LPS, E. coli 0111:B4, Sigma-Aldrich). […] Rendon-Mitchell et al. 2003; Wang et al. 1999). HMGB1 western blotting analysis. The levels of HMGB1 in the culture medium or serum were determined by western blotting analysis as previously described (Chen et al. 2004; Rendon-Mitchell et al. 2003; Wang et al. 1999). The relative band intensity was quantified using NIH image 1.59 software to determine HMGB1 levels with reference to standard curves generated with purified HMGB1.

TNF = assay: LPS-mediated TNF secretion in RAW 264.7 macrophages (ELISA); type: cell-based, murine; details: concentrations up to 10 μM, FIG. 5C
Protocol: Cell culture. Murine macrophage-like RAW 264.7 cells were obtained from the American Type Culture Collection (ATCC, Rockville, Md.), and primary peritoneal macrophages were isolated from Balb/C mice (male, 7-8 weeks, 20-25 grams) at 2-3 days after intraperitoneal injection of 2 ml thioglycollate broth (4%) as previously described (Chen et al. 2004; Rendon-Mitchell et al. 2003). Murine macrophages were pre-cultured in RPMI 1640 medium (Gibco BRL, Grand Island, N.Y.) supplemented with 10% fetal bovine serum (FBS) and 2 mmol/L glutamine. Human peripheral blood mononuclear cells (HuPBMCs) were isolated from the blood of healthy donors (Long Island Blood Bank, Melville, N.Y.) by density gradient centrifugation through Ficoll (Ficoll-Paque PLUS, Pharmacia, Piscataway, N.J.), and cultured in RPMI 1640 supplemented with 10% heat-inactivated human serum/0.2 mM L-glutamine as previously described (Rendon-Mitchell et al. 2003). LPS stimulation. […] The levels of TNF in the culture medium or serum were determined using commercial enzyme linked immunosorbent assay (ELISA) kits (Catalog no. MTA00, R & D Systems, Minneapolis, Minn.) with reference to standard curves of purified recombinant TNF at various dilutions as previously described (Chen et al. 2004; Rendon-Mitchell et al. 2003; Wang et al. 2006).

acetylcholinesterase = acetylcholinesterase (Homo sapiens, UniProt P22303); details: literature; cited from earlier work
nitric oxide = details: Wang et al. 2006; cited from earlier work
HMGB1 [2] = details: Wang et al. 2006; cited from earlier work
lethal sepsis = assay: Lethal sepsis induced by cecal ligation and puncture (CLP) in Balb/C mice; type: in vivo; details: 12 mg/kg, repeated at 24, 48, 72, 96 hours post onset; vehicle 50%; N=14, p>0.05
Protocol: Animal models of endotoxemia and sepsis. This study was approved and performed in accordance with the guidelines for the care and use of laboratory animals at the Feinstein Institute for Medical Research, Manhasset, N.Y. Endotoxemia was induced in Balb/C mice (male, 7-8 weeks) by intraperitoneal injection of bacterial endotoxin (LPS, 15 mg/kg) as previously described (Chen et al. 2005; Wang et al. 1999; Wang et al. 2006). Sepsis was induced in male Balb/C mice (7-8 weeks, 20-25 g) or Sprague-Dawley rats (290-310 g) by cecal ligation and puncture (CLP) as previously described (Wang et al. 2006; Yang et al. 2002b). Herbal components were administered intraperitoneally into mice at indicated doses and time points, and mice were monitored for survival for up to two weeks. In parallel experiments, mice were euthanized to collect blood at 28 h (following two doses of herbal components at −0.5 and +24 h) after endotoxemia, and at 52 h (following two doses of herbal components at +24 and +48 h) after CLP.
TNF ELISA. The levels of TNF in the culture medium or serum were determined using commercial enzyme linked immunosorbent assay (ELISA) kits (Catalog no. MTA00, R & D Systems, Minneapolis, Minn.) with reference to standard curves of purified recombinant TNF at various dilutions as previously described (Chen et al. 2004; Rendon-Mitchell et al. 2003; Wang et al. 2006).
Nitric oxide assay. The levels of nitric oxide in the culture medium were determined indirectly by measuring NO^2− production with a colorimetric assay based on the Griess reaction (Rendon-Mitchell et al. 2003). NO2-concentrations were determined with reference to a standard curve generated with sodium nitrite at various dilutions.
HMGB1 western blotting analysis. The levels of HMGB1 in the culture medium or serum were determined by western blotting analysis as previously described (Chen et al. 2004; Rendon-Mitchell et al. 2003; Wang et al. 1999). The relative band intensity was quantified using NIH image 1.59 software to determine HMGB1 levels with reference to standard curves generated with purified HMGB1.
Tissue histology. At 48 hours after CLP, mice were euthanized in CO2 Chamber, and immediately perfused (transcardially) with phosphate buffer saline and 4% paraformaldehyde. Various tissues were harvested, sectioned, and stained with hematoxylin and eosin for morphology evaluation.

phospholipase A2 = details: Kim et al. 2002; cited from earlier work
[3] = superpharmacological concentrations (1-25 μM), data not shown
[4] = RAW264.7, RAW 264.7 cells, 16 h after LPS, western blot, estimated

Sequence of acetylcholinesterase (P22303 32-614, species assumed): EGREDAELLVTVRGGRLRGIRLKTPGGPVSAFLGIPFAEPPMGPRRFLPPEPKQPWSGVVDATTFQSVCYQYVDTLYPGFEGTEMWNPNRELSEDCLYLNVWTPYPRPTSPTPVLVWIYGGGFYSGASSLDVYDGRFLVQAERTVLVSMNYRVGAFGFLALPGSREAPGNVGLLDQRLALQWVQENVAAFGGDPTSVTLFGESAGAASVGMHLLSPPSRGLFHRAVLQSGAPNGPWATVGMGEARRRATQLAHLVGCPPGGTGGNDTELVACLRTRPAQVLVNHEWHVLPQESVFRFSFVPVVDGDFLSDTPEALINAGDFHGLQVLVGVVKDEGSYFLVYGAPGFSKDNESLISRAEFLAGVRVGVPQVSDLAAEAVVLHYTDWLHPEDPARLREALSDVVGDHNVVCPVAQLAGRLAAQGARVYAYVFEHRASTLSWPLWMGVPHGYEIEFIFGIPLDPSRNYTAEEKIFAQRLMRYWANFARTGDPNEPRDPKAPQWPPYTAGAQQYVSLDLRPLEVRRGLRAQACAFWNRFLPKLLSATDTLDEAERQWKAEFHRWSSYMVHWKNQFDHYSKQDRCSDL

Structure (SMILES): CC(=O)Oc1ccccc1C(=O)O [aspirin]
- effect on LPS-induced HMGB1 release (HMGB1 [1]; [3]): None of the tested cyclooxygenase inhibitors (e.g., aspirin, ibuprofen, and indomethacin) significantly affected

Structure (SMILES): C[C@]12CCC(=O)C=C1CC[C@@H]1[C@@H]2C(=O)C[C@@]2(C)[C@H]1CC[C@]2(O)C(=O)CO [cortisone]
- effect on LPS-induced HMGB1 release (HMGB1 [1]; concentrations up to 10 μM, FIG. 5B): failed to reduce
- effect on LPS-mediated TNF secretion (TNF): effectively attenuated

Structure (SMILES): CC1COC2=C1C(=O)C(=O)c1c2ccc2c1CCCC2(C)C (centres unmarked) [cryptotanshinone, 1,6,6-Trimethyl-1,2,6,7,8,9-hexahydro-phenanthro[1,2-b]furan-10,11-dione]
- IC50 (HMGB1 [1]; RAW264.7, 16 h): < 25 µM
- inhibition of acetylcholinesterase (acetylcholinesterase): can inhibit

Structure (SMILES): COc1cc(/C=C/C(=O)O)ccc1O [ferulic acid]
- effect on LPS-induced nitric oxide production (nitric oxide): effectively attenuated
- effect on LPS-induced HMGB1 release (HMGB1 [2]): failed to affect

Structure (SMILES): CC(C)Cc1ccc(C(C)C(=O)O)cc1 (centres unmarked) [ibuprofen]
- effect on LPS-induced HMGB1 release (HMGB1 [1]; [3]): None of the tested cyclooxygenase inhibitors (e.g., aspirin, ibuprofen, and indomethacin) significantly affected

Structure (SMILES): COc1ccc2c(c1)c(CC(=O)O)c(C)n2C(=O)c1ccc(Cl)cc1 [indomethacin]
- effect on LPS-induced HMGB1 release (HMGB1 [1]; [3]): None of the tested cyclooxygenase inhibitors (e.g., aspirin, ibuprofen, and indomethacin) significantly affected

Structure (SMILES): Cc1coc2c1C(=O)C(=O)c1c-2ccc2c1CCCC2(C)C [tanshinone IIA, 1,6,6-Trimethyl-6,7,8,9-tetrahydro-phenanthro[1,2-b]furan-10,11-dione]
- IC50 (HMGB1 [1]; [4]): < 25 µM
- survival rate, lethal sepsis (lethal sepsis): 61%

Structure (SMILES): Cc1coc2c1C(=O)C(=O)c1c-2ccc2c(C)cccc12 [tanshinone I]
- IC50 (HMGB1 [1]; [4]): < 25 µM
- survival rate, lethal sepsis (lethal sepsis): 57%
- inhibition of phospholipase A2 (phospholipase A2): can inhibit
